The values that follow come from US7531567B2, “Use of a medicament containing an effector of the glutathione metabolism together with α-lipoic acid in kidney replacement therapy” (Serumwerk Bernburg AG, priority 2001, dated 2009).

Holding throughout (type): cell-based, human
The test system of one test is peripheral immune cells. As to the kind of experiment: membrane-bound thiol expression of peripheral immune cells (CMTMR flow cytofluorimetry). The settings on record: α-lipoic acid 50 μM, captopril 10 μM, combination at the same concentrations. Here is the method:
Peripheral immune cells of healthy donors (n=9) were isolated from the peripheral blood by means of density gradient centrifugation. Lymphocytes having a donor-dependent relative proportion of about 90% in this case normally represent the main fraction of the resulting total population of mononuclear cells. 10% of the mononuclear cells are represented by monocytes. The mononuclear cells obtained were taken up in special cell culture media and incubated in a gas incubator at 37° C., a relative humidity of 98% and 5% relative air-CO2 content. The metabolism of the primarily resting immune cells was activated by means of mitogenic stimulation (0.5 μg/ml of phytohemagglutinin). In order to test the influence of the combinations used according to the invention on the thiol status of thiol-deficient immune cells, these were artificially thiol-depleted. This was carried out by culturing in thiol-deficient media (RPMI 1603) according to tested procedures. Comparison cultures using whole media (RPMI 1640) served for the definition of the best possible normal value under culture conditions. The expression of membrane-bound thiol groups was likewise determined by flow cytofluorimetry. In this connection, chloromethyltetramethylrhodamine (CMTMR) was employed as a thiol conjugate under the conditions of a blocked membrane potential and of an inhibited diffusion capacity of the cells. The fluorescence intensity of the bound fluorochrome molecules on the cell membrane is in this case in turn proportional to the amount of the thiol groups on the cell surface.

In test [1] the test system is peritoneal macrophages. Put plainly: cytokine synthesis of peritoneal macrophages (enzyme immunoassay). Particulars: treatment period of 6 days (n=10); α-lipoic acid 50 μM, ambroxole 10 μM, enalapril 5 μM, captopril 10 μM. Here is the method:
In parallel to this, in this experimental batch the cell culture supernatants were recovered and the cytokines interleukin-6 (IL-6) and interleukin-1 receptor antagonist (IL-1ra) contained therein, synthesized and secreted by the peritoneal macrophages, were determined.

Test [2] has as its system peritoneal macrophages. As to the kind of experiment: phagocytic ability of peritoneal macrophages (fluorochrome-labelled bacteria). Particulars: treatment period of 6 days. As for the experimental part: Peritoneal macrophages were isolated analogously to the procedure described under example 3 and cultured ex vivo. The determination of the phagocytic power was carried out by means of a cytofluorometric test at the individual cell level. In this test, the macrophages were cocultured with opsonized and fluorochrome-labelled bacteria. The amount of bacteria taken up in a defined time period was recorded quantitatively by means of the fluorescence intensity in the macrophages and was regarded as a measure of their phagocytic capacity. The influence of the combinations used according to the invention on the phagocytic ability of the peritoneal macrophages after a treatment period of 6 days is presented in Table 3.

The subject of test [3] is peritoneal macrophages. Put plainly: degree of differentiation and activation of peritoneal macrophages (CD15, CD11c, CD69, CD71). Particulars: incubation for 6 days, control = 1.0, α-lipoic acid 50 μM, ambroxole 10 μM, enalapril 5 μM, captopril 10 μM. As for the experimental part: Peritoneal macrophages were isolated from patients under kidney replacement therapy according to the processes described under example 3 and cultured in the presence of the combinations of α-lipoic acid and effectors of the glutathione metabolism named according to the invention. After incubation for 6 days, the degree of differentiation of the peritoneal macrophages was determined cytofluorometrically by means of the expression of the cell surface antigens CD15 and CD11c, and the degree of cellular activation by means of the coexpression of the activation antigens CD69 on CD15-positive cells and CD71 on CD11c-positive cells.

As to `O=C(O)CCCCC1CCSS1` (stereo not drawn) [α-lipoic acid], the Membrane-bound thiol expression was 2.37 ± 0.45 mfiBeads/Ratio with peripheral immune cells (culture period 0 d); 2.65 ± 0.39 mfiBeads/Ratio in the test with peripheral immune cells (culture period 1 d); 2.43 ± 0.52 mfiBeads/Ratio with peripheral immune cells (culture period 2 d); 2.31 ± 0.36 mfiBeads/Ratio in the test on peripheral immune cells (culture period 3 d); 2.26 ± 0.20 mfiBeads/Ratio with peripheral immune cells (culture period 4 d); 2.19 ± 0.13 mfiBeads/Ratio in the test on peripheral immune cells (culture period 6 d). For the same compound, the Membrane-bound thiol expression with peripheral immune cells (culture period 8 d) amounted to 1.93 ± 0.20 mfiBeads/Ratio; with peripheral immune cells (culture period 10 d), 1.63 ± 0.16 mfiBeads/Ratio; in the test on peripheral immune cells (culture period 12 d), 1.32 ± 0.21 mfiBeads/Ratio; with peripheral immune cells (culture period 14 d) it was 1.34 ± 0.20 mfiBeads/Ratio. In the test with peritoneal macrophages [1], this compound registered an IL-1ra of 119.8 ± 19.5 ng/10^6 cells. Further, in the test with peritoneal macrophages [1], the IL-6 came out at 46.9 ± 6.7 ng/10^6 cells. For the same compound, the “increase in the phagocytosis rate in relation to the untreated control, factor” value in the test on peritoneal macrophages [2] worked out at 1.85. Moreover, the Phagocytosis rate with peritoneal macrophages [2] (α-lipoic acid 50 μM, ambroxole 10 μM, enalapril 5 μM, captopril 10 μM) is reported as 687 ± 59 mfi/10,000 cells. Besides, the CD15/69 in the test on peritoneal macrophages [3] (CD69 on CD15-positive cells) is recorded as 1.09 ± 0.08. The CD11c/71 with peritoneal macrophages [3] (CD71 on CD11c-positive cells) is 1.08 ± 0.09. Also, in the test with peritoneal macrophages [3], the CD11c came out at 1.21 ± 0.11. Moreover, the CD15 in the test with peritoneal macrophages [3] stood at 1.18 ± 0.16.
